In US9421193B2, “Benzothiazole derivatives and a use thereof for the treatment of cancer” (Korea Institute of Radiological & Medical Sciences, priority 2014, dated 2016):

Columns and labels:
[1] = test system: non-small cell lung cancer cell strain H460; assay: Trypan blue live cell count (cell viability); format: cell-based, human; conditions: FIGS. 3A and 3B, PB12 at 150 μM
Procedure: Whether the cancer cell growth inhibitory effects of the compounds PB01 and PB11 on the non-small cell lung cancer cell strains is associated with apoptosis was investigated. The cell growth inhibitory effects were evaluated by a trypan blue assay, and cell shapes were observed using an inverted microscope. The shapes of cell nuclei were observed via Hoeschst 33342 staining. Degrees of inducing apoptosis were quantized by flow cytometry (fluorescent activated cell sorting (FACS)).
After about 5×10^3 cells per well of each of the human non-small cell lung cancer cell strains A549 and H460 were portioned into a 96-well plate, about 10 uM to about 50 uM of the compounds PB01 or PB11 in 200 ul of culture solution were added into the wells, and incubated for about 8 to 72 hours. Cells were collected from the incubation product, and centrifuged at about 2,000 rpm for 5 minutes. After removing a supernatant, the remaining cells were mixed with 1 mL of phosphate-buffered saline (PBS) to obtain a cell suspension, which was then mixed with an equal amount of 0.5% trypan blue (Gibco BRL), followed by treatment for about 1 minute. The number of live cells was counted using a phase-contrast) microscope. The live cell counting was repeated three times, and an average live cell count and a standard error were calculated using a Microsoft Excel program. Cell viability graphs with respect to compound concentration and incubation time were obtained. The same experiment was performed with 50 μM of the compound PB01, PB11 50 μM of the compound PB11, or 150 μM of the compound PB12 150 μM, and cell viability graphs with respect to compound concentration and incubation time were obtained.

[2] = test system: non-small cell lung cancer cell strain H460; assay: Apoptosis ratio, Annexin V flow cytometry; format: cell-based, human; conditions: about 40 hours, 50 μM PB01, 50 μM PB11, 150 μM PB12, FIGS. 9A and 9B
Procedure: About 5×10^5 cells per well of each of the non-small cell lung cancer cell strains A549 and H460 were portioned into a 6-well plate and then incubated with the compounds PB01 or PB11 for about 40 hours in the same manner as described above. A cell layer was washed with PBS and then treated with trypsin-EDTA solution to isolate cells. The isolated cells were collected and stained with an Annexin V Flous Staining kit (available Roche Applied Science, Penzberg, Germany) in a dark condition for about 30 minutes. The stained cells were analyzed by flow cytometry using a FACScan™ (available from Becton Dicknson) to count the number of dead cells and then calculate an apoptosis ratio. The same experiment was performed with 50 μM of PB01, 50 μM of PB11, or 150 μM of PB12 in the same manner as described above. The graphs of cell viability with respect to compound concentration and incubation time obtained based on the experimental results are shown in FIGS. 9A and 9B.

Cc1noc(C)c1CSc1nc2ccc(NC(=O)C3CCC(O)CC3)cc2s1 (centres unmarked) [PB12]
cancer cell apoptosis effect with respect to concentration and incubation time [1]: improved cancer cell apoptosis effects with increases in concentration and incubation time
apoptosis induction (Annexin V) [2]: kill the non-small cell lung cancer cells by inducing apoptosis
